Laboratory results published in US5652097A, “In vitro test to evaluate the inhibition potency of angiotensin II antagonists on angiotensinogen” (priority 1994, dated 1997).

What was measured:
[1] = system: expression of pOGH (ANG N-1498/+18) fusion gene in Hep G-2 cells; assay: Transient gene transfection assay of pOGH (ANG N-1498/+18) in Hep G-2 cells, IR-hGH by RIA; type: cell-based, human; details: AII 10^-9 mol/L; for inhibition of the stimulatory effect of AII on expression of pOGH (ANG N-1498/+18): antagonist 10^-5 mol/L
Description: Plasmids or fusion genes were transfected into Hep G-2 cells utilizing calcium phosphate endocytosis as described previously (Ming M. et al., Am. J. Hypertens., 1993, 6:141-148). It was previously shown that optimal dose of DNA for gene transfection in mouse hepatoma (Hepa 1-6) cells is 20 μg of supercoiled DNA per 0.5-1×10^6 cells (Ming M. et al., Am. J. Hypertens., 1993, 6:141-148). Similar results were obtained in Hep G-2 cells. Thus, in present studies, a total of 20 μg DNA was routinely used in the cell transfection.
To study the effect of AII in the presence or absence of various AII antagonists on the expression of fusion gene in transient gene transfection assays, cells were incubated in DMEM without FBS, 10^-9 mol/L AII with or without 10^-5 mol/L AII antagonist were added on day 1 after DNA transfection. The media or cells were harvested on day 2 for assay of IR-hGH or CAT enzymatic activity, respectively.
In order to normalize the efficiency of transfection of pOGH (ANG N-1498/+18), 1 μg of pRSVCAT (a vector with the Rous Sarcoma Virus enhancer/promoter sequence fused to the 5'-end of the CAT coding sequence) was cotransfected with the pOGH (ANG N-1498/+18) (20 μg DNA). The results of pOGH (ANG N-1498/+18) were normalized to the efficiency of transfection of pRSVCAT. The levels of transfection efficiency for pOGH (ANG N-1498/+18) in human hepatoma cells was 25+12% as compared to pRSVCAT.
Results are expressed as the percentage of the control (without addition of AII antagonist, 100%), mean ±S.D. AII (10^-9 mol/L) stimulated the expression of the ANG-GH fusion gene by 1.4-fold (p<0.01) as compared to the control (absence of AII) in Hep G-2 cells. In the presence of Lorsatan™ (10^-5 mol/L) or Saralasin™ (10^-5 mol/L), the stimulatory effect of AII was inhibited.
(§1) The radioimmunoassay kit for hGH (RIA-hGH) was a gift from NIADDK, NIH, USA. The double antibody RIA procedure was similar to that previously used for the radioimmunoassay of ovine placental lactogen (Chan JSD et al., Endocrinology, 1978, 102:1606-1613). NIAMDD-hGH-1 (AFP-4793 B) was used for both iodination and as a hormone standard.

[2] = system: expression of pOGH (ANG N-1498/+18) in Hep G-TW7 cells stimulated by AII; assay: Inhibition of AII-stimulated expression of pOGH (ANG N-1498/+18) in Hep G-TW7 cells, IR-hGH by RIA; type: cell-based, human; details: AII 10^-9 mol/L, 24 hours; for effect on the stimulatory effect of AII on expression of pOGH (ANG N-1498/+18): various concentrations of test substance
Description: Hep G-TW7 cells were plated at a density of 1-2×10^5 cells/well in a. 6-well plate and incubated overnight in DMEM containing 1% depleted FBS (dFBS). Then cell growth was arrested by incubation in serum-free medium for 24 hours. Subsequently, various concentrations (10^-9 to 10^-5 mol/L) of Lorsatan™, Saralasin™ and CGP 42112A™ were added to the culture medium containing 1% dFBS in the presence of 10^-9 mol/L AII and incubated for 24 hours. At the end of the incubation period, media were collected and kept at -20° C. until assay.
Cells were incubated for up to 24 hours in the presence of AII (10-9mol/L) and various concentrations of Lorsatan™ (10^-9 to 10^-5 mol/L) or Saralasin™ (10^-9 to 10^-5 mol/L) or CGP 42112A™ (10^-9 to 10^-5 mol/L). Media harvested and assayed for the level of IR-hGH.
Hep G-TW7 cells were plated at a density of 1-2×10^5 cells/well in a 6-well plate and incubated overnight in DMEM containing 1% dFBS. Then cells growth was arrested by incubation in serum-free medium for 24 hours. […] At the end of the incubation period, media were collected and kept at -20° C. until assay.
Media were harvested and assayed for the level of IR-hGH.
The radioimmunoassay kit for hGH (RIA-hGH) was a gift from NIADDK, NIH, USA. […] NIAMDD-hGH-1 (AFP-4793 B) was used for both iodination and as a hormone standard.

[3] = system: expression of pOGH (ANG N-1498/+18) in Hep G-TW7 cells; assay: Stimulation of expression of pOGH (ANG N-1498/+18) in stable Hep G-TW7 cells by angiotensins, IR-hGH by RIA; type: cell-based, human; details: 24 hours; for concentration giving maximal stimulation of expression of pOGH (ANG N-1498/+18): 10^-11 to 10^-5 mol/L tested
Description: The method for the selection of stable hepatoma transformants with high expression of pOGH (ANG N-1498/+18) was similar to that described previously for opossum kidney cells (Wang TT et al., Kidney Int., 1994, 46:703-710). Briefly, plasmids pOGH (ANG N-1498/+18) and pRSV-Neo fusion genes were co-transfected (20 μg each) into Hep G-2 cells (1×10^6 cells) utilizing calcium phosphate-mediated endocytosis (Ming M. et al., Am. J. Hypertens., 1993, 6:141-148). After transfection, the cells were cultured overnight in 5.0 ml of DMEM containing 10% FBS. Then the medium was replaced with fresh medium containing 10% FBS and 500 μg/ml of aminoglycoside G 418 (Geneticin, Gibco Inc.). The stable transformants which were able to grow in the presence of G 418 and which secreted high levels of IR-hGH into the medium were further subcloned using the method of limiting dilution. Those cells that had passed through at least three repetitions of limiting dilution and continued to secrete high levels of IR-hGH after three months in the presence of G 418 were considered to be stable clones. One clone of human hepatoma (Hep G-TW7) with pOGH (ANG N-1498/+18) integrated into the genomes of Hep G-2 cells was obtained. The clone (Hep G-TW7) was used in accordance with the present invention.
Hep G-TW7 cells were plated at a density of 1-2×10^5 cells/well in 6-well plates and incubated overnight in DMEM containing 1% depleted FBS (dFBS). Then cell growth was arrested by incubation in serum-free medium for 24 hours. Subsequently, various concentrations of AII (10^-11 to 10^-5 mol/L) were added to the culture medium containing 1% dFBS. At the end of the incubation period, media were collected and kept at -20° C. until assay for IR-hGH.
Cells were incubated for up to 24 hours in the presence of various concentrations of AII. Media were harvested after 24 hours of incubation and assayed for IR-hGH. Each point represents the mean ±S.D. of at least three dishes (*p<0.05, **p<0.01 and **p<0.005).Similar results were obtained from two other experiments. It appears that maximal stimulation of expression of the pOGH (ANG N-1498/+18) was found with 10^-9 mol/L AII (p<0.01). At other concentrations of AII, it appears that the stimulatory effect of AII is minimal or inhibited.
as §1
Hep G-TW7 cells were plated at a density of 1-2×10^5 cells/well in 6-well plates and incubated overnight in DMEM containing 1% depleted fetal bovine serum (dFBS). […]

[4] = system: expression of pOCAT (ANG N-1498/+18) in Hepa 1-6 cells; details: cited from earlier work
[5] = system: expression of pOCAT (ANG N-1498/+18) in hepatoma cells; assay: Transient gene transfection of pOCAT (ANG N-1498/+18) in the presence of hGH, CAT assay; type: cell-based, human; details: hGH as high as 4.5 mmol/L
Text: The method for the CAT assay has been described previously (Ming M. et al., Am. J. Hypertens., 1993, 6:141-148). The results of all CAT assays are given as a mean+S.D. in triplicates.
In accordance with the present invention, the plasmid pOGH (ANG N-1498/+18) was employed to study the effect of AII (FIGS. 2 to 6). Since receptors for hGH are presented in Hep G-2 cells, this raised the possibility that the hGH secreted into the medium may have a stimulatory effect on the expression of the ANG gene. Thus, in order to investigate this possibility, transient gene transfection experiments were performed by employing pOCAT (ANG N-1498/+18) (Ming M. et al., Am. J. Hypertens., 1993, 6:141-148), in the presence of hGH. […] The use of plasmid pOGH (ANG N-1498/+18) in accordance with the present invention is appropriate.

Compound: CCCCc1nc(Cl)c(CO)n1Cc1ccc(-c2ccccc2-c2nn[nH]n2)cc1 [Lorsatan]
- inhibition of the stimulatory effect of AII on expression of pOGH (ANG N-1498/+18) [1]: inhibited
- effect on the stimulatory effect of AII on expression of pOGH (ANG N-1498/+18) [2]: inhibits the stimulatory effect of AII
- minimal effective concentration ([2]; Homo sapiens, read-out: effective dose for the inhibition of the AII-stimulated expression of pOGH (ANG N-1498/+18)): 0.001 µM

Compound: angiotensin II (DRVYIHPF; Angiotensin-2; UniProt P01019 25-32, looked up) [AII, peptide derived from angiotensinogen; stimulus of ANG gene expression]
- effective dose for stimulating the expression of pOGH (ANG N-1498/+18) [3]: 10^-9 mol/L
- concentration giving maximal stimulation of expression of pOGH (ANG N-1498/+18) [3]: 10^-9 mol/L
- stimulation of the expression of the ANG-GH fusion gene as compared to the control (absence of AII) ([1]; p<0.01, 0.001 µM): 1.4 fold

Compound: CGP 42112A
- inhibition of the stimulatory effect of AII on expression of pOGH (ANG N-1498/+18) [1]: no inhibitory effect
- effective dose for the inhibition of the AII-stimulated expression of pOGH (ANG N-1498/+18) [2]: > 10^-5 mol/L

Compound: Nc1ncnc2c1nc(Br)n2[C@@H]1O[C@@H]2COP(=O)(O)O[C@H]2[C@H]1O [8-Br-cAMP, 8-Bromo-cAMP]
- effect on the stimulatory effect of dexamethasone on expression of ANG-CAT fusion genes ([4]; added with DEX): enhanced the stimulatory effect
- effect on expression of ANG-CAT fusion genes, substance alone [4]: no stimulatory effect

Compound: CNCC(=O)N[C@@H](CCCN=C(N)N)C(=O)N[C@H](C(=O)N[C@@H](Cc1ccc(O)cc1)C(=O)N[C@H](C(=O)N[C@@H](Cc1cnc[nH]1)C(=O)N1CCC[C@H]1C(=O)N[C@@H](C)C(=O)O)C(C)C)C(C)C [Saralasin]
- inhibition of the stimulatory effect of AII on expression of pOGH (ANG N-1498/+18) [1]: inhibited
- effective dose for the inhibition of the AII-stimulated expression of pOGH (ANG N-1498/+18) [2]: 10^-7 mol/L
- effect on the stimulatory effect of AII on expression of pOGH (ANG N-1498/+18) [2]: inhibits the stimulatory effect of AII

Compound: hGH: human growth hormone
- effect of hGH on expression of pOCAT (ANG N-1498/+18) [5]: No significant increase

Compound: CN[C@@H]1C[C@H]2O[C@@](C)([C@@H]1OC)n1c3ccccc3c3c4c(c5c6ccccc6n2c5c31)C(=O)NC4 [Staurosporine]
- effect on the stimulatory effect of AII on expression of pOGH (ANG N-1498/+18) [2]: inhibits the stimulatory effect of AII

Compound: angiotensin I (DRVYIHPFHL; Angiotensin-1; UniProt P01019 25-34, looked up) [AI]
- concentration giving maximal stimulation of expression of pOGH (ANG N-1498/+18) [3]: 10^-7 mol/L

Compound: CC[C@H](C)[C@H](NC(=O)[C@H](Cc1ccc(O)cc1)NC(=O)[C@@H](NC(=O)[C@@H](N)CCCNC(=N)N)C(C)C)C(=O)N[C@@H](Cc1c[nH]cn1)C(=O)N1CCC[C@H]1C(=O)N[C@@H](Cc1ccccc1)C(=O)O [AIII, angiotensin III]
- effective dose for stimulating the expression of pOGH (ANG N-1498/+18) [3]: > 10^-5 mol/L

Compound: C[C@@H]1C[C@H]2[C@@H]3CCC4=CC(=O)C=C[C@]4(C)[C@@]3(F)[C@@H](O)C[C@]2(C)[C@@]1(O)C(=O)CO [dexamethasone]
- effect on expression of ANG-CAT fusion genes, substance alone [4]: stimulates the expression
